Assay results reported in the supplement of paper PMC11451515.

Tested on: NOMO1
Assay: cell viability relative to DMSO control; higher = less cytotoxic
Conditions: 48 h
Method in brief: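 Before seeding, each leukemia line was adapted for at least four passages in each medium. NOMO1 or SEM cells (500 cells/well) and P12-Ichikawa cells (1000 cells/well) went into 1536-well plates at 5 μl, then received library compounds in DMSO by pin dosing across 11 threefold concentrations, 47 μM to 0.79 nM. Readout was CellTiter-Glo One luminescence after 48 h at 37°C, and viability is given as a per-plate percentage of DMSO wells, with cell-free wells as background.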

[1] = RPMI 5 mM glucose + 10% FBS, 0.000781 µM
[2] = RPMI 5 mM glucose + 10% FBS, 0.00234 µM
[3] = RPMI 5 mM glucose + 10% FBS, 0.00702 µM
[4] = RPMI 5 mM glucose + 10% FBS, 0.0211 µM
[5] = RPMI 5 mM glucose + 10% FBS, 0.0632 µM
[6] = RPMI 5 mM glucose + 10% FBS, 0.19 µM
[7] = RPMI 5 mM glucose + 10% FBS, 0.569 µM
[8] = RPMI 5 mM glucose + 10% FBS, 1.71 µM
[9] = RPMI 5 mM glucose + 10% FBS, 5.12 µM
[10] = RPMI 5 mM glucose + 10% FBS, 15.4 µM
[11] = RPMI 5 mM glucose + 10% FBS, 46.1 µM
[12] = RPMI 5 mM glucose + 10% dialyzed FBS, 0.000781 µM
[13] = RPMI 5 mM glucose + 10% dialyzed FBS, 0.00234 µM
[14] = RPMI 5 mM glucose + 10% dialyzed FBS, 0.00702 µM
[15] = RPMI 5 mM glucose + 10% dialyzed FBS, 0.0211 µM
[16] = RPMI 5 mM glucose + 10% dialyzed FBS, 0.0632 µM
[17] = RPMI 5 mM glucose + 10% dialyzed FBS, 0.19 µM
[18] = RPMI 5 mM glucose + 10% dialyzed FBS, 0.569 µM
[19] = RPMI 5 mM glucose + 10% dialyzed FBS, 1.71 µM
[20] = RPMI 5 mM glucose + 10% dialyzed FBS, 5.12 µM
[21] = RPMI 5 mM glucose + 10% dialyzed FBS, 15.4 µM
[22] = RPMI 5 mM glucose + 10% dialyzed FBS, 46.1 µM
[23] = HPLM + 10% dialyzed FBS, 0.000781 µM
[24] = HPLM + 10% dialyzed FBS, 0.00234 µM
[25] = HPLM + 10% dialyzed FBS, 0.00702 µM
[26] = HPLM + 10% dialyzed FBS, 0.0211 µM
[27] = HPLM + 10% dialyzed FBS, 0.0632 µM
[28] = HPLM + 10% dialyzed FBS, 0.19 µM
[29] = HPLM + 10% dialyzed FBS, 0.569 µM
[30] = HPLM + 10% dialyzed FBS, 1.71 µM
[31] = HPLM + 10% dialyzed FBS, 5.12 µM
[32] = HPLM + 10% dialyzed FBS, 15.4 µM
[33] = HPLM + 10% dialyzed FBS, 46.1 µM

| Compound | cell viability [1] [%] | cell viability [2] [%] | cell viability [3] [%] | cell viability [4] [%] | cell viability [5] [%] | cell viability [6] [%] | cell viability [7] [%] | cell viability [8] [%] | cell viability [9] [%] | cell viability [10] [%] | cell viability [11] [%] | cell viability [12] [%] | cell viability [13] [%] | cell viability [14] [%] | cell viability [15] [%] | cell viability [16] [%] | cell viability [17] [%] | cell viability [18] [%] | cell viability [19] [%] | cell viability [20] [%] | cell viability [21] [%] | cell viability [22] [%] | cell viability [23] [%] | cell viability [24] [%] | cell viability [25] [%] | cell viability [26] [%] | cell viability [27] [%] | cell viability [28] [%] | cell viability [29] [%] | cell viability [30] [%] | cell viability [31] [%] | cell viability [32] [%] | cell viability [33] [%] |
| --- | --- | --- | --- | --- | --- | --- | --- | --- | --- | --- | --- | --- | --- | --- | --- | --- | --- | --- | --- | --- | --- | --- | --- | --- | --- | --- | --- | --- | --- | --- | --- | --- | --- |
| COc1cc2c(cc1O)CCC1C2CC[C@@]2(C)C1CC[C@@H]2O (some centres undefined) | 117 | 111 | 103 | 110 | 121 | 120 | 111 | 101 | 84.2 | 25.1 | 32.6 | 118 | 129 | 117 | 116 | 121 | 115 | 119 | 115 | 63.8 | 33.9 | 40.4 |  |  |  |  |  |  |  |  |  |  |  |
| CC(C)[C@H](C(=O)Nc1ccc(C(=O)NO)cc1)c1ccccc1 | 113 | 108 | 122 | 138 | 119 | 131 | 125 | 118 | 19 | 8.3 | 8.21 |  |  |  |  |  |  |  |  |  |  |  |  |  |  |  |  |  |  |  |  |  |  |
| CCOc1ccccc1N/N=C1/C(=O)N(c2nc(-c3ccccc3)cs2)N=C1C | 109 | 103 | 104 | 114 | 97.3 | 109 | 101 | 97.3 | 97.8 | 77.1 | 56.1 | 109 | 106 | 103 | 122 | 118 | 102 | 104 | 90.5 | 90 | 59.8 | 39.7 | 118 | 122 | 119 | 123 | 113 | 117 | 115 | 108 | 103 | 57.5 | 32.1 |
| c1coc(CNc2ncnc3nc[nH]c23)c1 | 125 | 131 | 124 | 113 | 116 | 119 | 140 | 132 | 118 | 119 | 108 | 124 | 122 | 125 | 124 | 128 | 121 | 121 | 112 | 107 | 94.1 | 88.5 | 120 | 126 | 123 | 133 | 129 | 136 | 117 | 118 | 118 | 108 | 97.3 |
| C/C1=C/C(=C(/CNC(=O)C2=CC(=CC3=C2C=N[N]3C4CCCC4)C5=CC=C(CN6CCOCC6)C=C5)C(=O)N1)C | 110 | 125 | 118 | 120 | 132 | 127 | 127 | 124 | 104 | 117 | 22 | 124 | 118 | 128 | 123 | 125 | 111 | 131 | 125 | 125 | 112 | 13.5 |  |  |  |  |  |  |  |  |  |  |  |
| CCOc1cc(C(=O)Nc2ccc(Cl)c(-c3nc4ccccc4[nH]3)c2)cc(OCC)c1OCC | 72.8 | 90.6 | 81.9 | 92.8 | 93 | 90.3 | 83.5 | 83.2 | 88.2 | 98.1 | 59.1 | 83.8 | 84.3 | 104 | 84.6 | 84.6 | 90.3 | 87.3 | 95 | 109 | 101 | 50.1 | 79.3 | 104 | 101 | 102 | 104 | 108 | 105 | 115 | 107 | 116 | 63.3 |
| CCCCCN(C)CCC(O)(P(=O)([O-])O)P(=O)(O)O | 81.1 | 88.8 | 89.5 | 96.7 | 97.3 | 99.9 | 97.9 | 94.4 | 95 | 84.8 | 81.7 | 84.6 | 87.3 | 86.1 | 80 | 93.7 | 101 | 96.5 | 90.8 | 85.2 | 94.1 | 75 | 68.4 | 81.8 | 89 | 101 | 85.3 | 92.9 | 89.5 | 92.4 | 86 | 80 | 94 |
| OC[C@H]1OC(O)C[C@@H](O)[C@@H]1O (some centres undefined) |  |  |  |  |  |  |  |  |  |  |  | 109 | 118 | 128 | 125 | 137 | 123 | 120 | 142 | 128 | 129 | 68 | 110 | 113 | 127 | 125 | 125 | 128 | 121 | 135 | 109 | 122 | 52.4 |
